Experimental data as given in US10800791B2, “Triazole ACC inhibitors and uses thereof” (Gilead Apollo, LLC, priority 2015, dated 2020).
Converted amounts (≈) assume the structure as drawn. Where two headings read alike, the source gives them in different places.

Assays:
[1] = test system: Fusarium virguliforme (Fv); assay: Growth inhibition assay of fungal pathogens, Fv; format: cell-based; details: 48 h
Method in brief: (§1)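 Read-out: OD600 plus visual rating at 24 and 48 h, blank (media + 2% DMSO) subtracted. Percent inhibition was derived at 48 h versus the 2% DMSO control. Spores were grown in 17% V8 broth with compound at 50/10/2 or 2/0.4/0.08 ppm final.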

[2] = target: fungal (fACC2) (UniProt Q00955); details: read-out: fACC2 (in vitro ACC2 Inhibition Assay, IC50), ADP-Glo, 5 nM ACC2, 20 μM ATP, 20 μM acetyl-CoA
Procedure: An exemplary procedure for the in vitro ACC inhibition assay, which can be used to determine the inhibitory action of compounds of the invention toward either human (hACC2) or fungal (fACC2), follows. The ADP-Glo™ Kinase Assay kit from Promega was used. The ADP-Glo™ Kinase Assay is a luminescent ADP detection assay to measure enzymatic activity by quantifying the amount of ADP produced during an enzyme reaction. The assay is performed in two steps; first, after the enzyme reaction, an equal volume of ADP-Glo™ Reagent is added to terminate the reaction and deplete the remaining ATP. Second, the Kinase Detection Reagent is added to simultaneously convert ADP to ATP and allow the newly synthesized ATP to be measured using a luciferase/luciferin reaction. Luminescence can be correlated to ADP concentrations by using an ATP-to-ADP conversion curve. […] 50 μL of the compound being tested (600 μM in DMSO) was added to a 384-well dilution plate. The compound was diluted 1:3 in succession in DMSO for each row for 11 wells. 0.5 μL ACC2 working solution was added to 384-well white Optiplate assay plate. 0.5 μL diluted compound solution in each column from step 2 was added to assay plate, each row containing 2 replicates. […] The plates were incubated at room temperature for 15 minutes. 5 μL substrate working solution was added to each well to initiate reaction. Final ACC2 reaction concentrations consist of: 5 nM ACC2, 20 μM ATP, 20 μM acetyl-CoA, 12 mM NaHCO3, 0.01% Brij35, 2 mM DTT, 5% DMSO, test compound concentrations: 30 μM, 10 μM, 3.33 μM, 1.11 μM, 0.37 μM, 0.123 μM, 0.0411 μM, 0.0137 μM, 0.00457 μM, 0.00152 μM, and 0.00051 μM. Plates were incubated at room temperature for 60 minutes. 10 μL ADP glo reagent was added. Plates were incubated at room temperature for 40 minutes. 20 μL kinase detection reagent was added. Plates were incubated at room temperature for 40 minutes, and then read on a Perkin Elmer EnVision 2104 plate reader for luminescence as Relative Light Units (RLU).
Data for each concentration, as well as the positive and negative controls were averaged, and the standard deviation calculated. Percent inhibition was calculated by the formula: 100×(average negative control−compound)/(average negative control−average positive control). The IC50 for each compound was calculated by fitting the data with a non-linear regression equation: Y=Bottom+(Top−Bottom)/(1+10 ((Log IC50−X)*HillSlope)), where X is the log of compound concentration and Y is percent inhibition.

[3] = test system: Rhizoctonia solani (Rs); assay: Growth inhibition assay of fungal pathogens, Rs; format: cell-based; details: 48 h
[4] = test system: C. albicans; assay: Antifungal Activity Assay (broth microtiter MIC), C. albicans; format: cell-based, Candida albicans; details: Candida albicans, ATCC90028, 48 h
Method in brief: (§2)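 Broth microdilution per CLSI M27-A3 in RPMI 1640+MOPS, inoculum 2.5×10^3 CFU/mL final from overnight Sabouraud dextrose agar cultures at 35° C. Compounds diluted from DMSO stock to 128 μg/mL in water. MIC read visually versus growth control at 48 h.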

[5] = test system: C. krusei; assay: Antifungal Activity Assay (broth microtiter MIC), C. krusei; format: cell-based, Candida krusei; details: Pichia kudriavzevii, ATCC6258, 48 h
Method in brief: as §2

[6] = test system: Botrtyis cinerea (Bc); assay: Growth inhibition assay of fungal pathogens, Bc; format: cell-based; details: 48 h
Method in brief: as §1

[7] = test system: Diplodia maydis (Dm); assay: Growth inhibition assay of fungal pathogens, Dm; format: cell-based; details: Stenocarpella maydis, 48 h
Method in brief: as §1

[8] = test system: Phytophthora capsici (Pc); assay: Growth inhibition assay of fungal pathogens, Pc; format: cell-based; details: 48 h
Method in brief: as §1

[9] = target: human (hACC2) (Homo sapiens, UniProt O00763); assay: In vitro ACC inhibition assay (ADP-Glo), hACC2; format: biochemical; details: 5 nM ACC2, 20 μM ATP, 20 μM acetyl-CoA
Procedure: The detailed procedure is as follows. […] 10 μL ADP glo reagent was added. […] 20 μL kinase detection reagent was added.

[10] = test system: C. parapsilosis; assay: Antifungal Activity Assay (broth microtiter MIC), C. parapsilosis; format: cell-based, Candida parapsilosis; details: Lodderomyces parapsilosis, ATCC22019, 48 h
Method in brief: as §2

[11] = read-out: Concentration at 90% Inhibition Fv, Fusarium virguliforme, growth inhibition at 48 hours vs 2% DMSO control
[12] = read-out: Concentration at 90% Inhibition Fv, Fusarium virguliforme, growth inhibition vs 2% DMSO control at 48 hours
[13] = read-out: Concentration at 90% Inhibition Rs, Rhizoctonia solani, mycelial plugs, growth inhibition at 48 hours vs 2% DMSO control
[14] = read-out: Concentration at 90% Inhibition Rs, Rhizoctonia solani, mycelial plugs, growth inhibition vs 2% DMSO control at 48 hours
[15] = read-out: MIC, C. albicans ATCC 90028, Table 3a, 3 replicates, MIC recorded at 48 h
[16] = read-out: MIC, C. albicans ATCC 90028, Table 3b (additional results), 3 replicates, MIC recorded at 48 h
[17] = read-out: MIC, C. krusei ATCC 6258, Table 3a, 3 replicates, MIC recorded at 48 h
[18] = read-out: MIC, C. krusei ATCC 6258, Table 3b (additional results), 3 replicates, MIC recorded at 48 h
[19] = read-out: Concentration at 90% Inhibition Bc, Botrtyis cinerea, growth inhibition at 48 hours vs 2% DMSO control
[20] = read-out: Concentration at 90% Inhibition Bc, Botrtyis cinerea, growth inhibition vs 2% DMSO control at 48 hours
[21] = read-out: Concentration at 90% Inhibition Dm, Diplodia maydis, growth inhibition at 48 hours vs 2% DMSO control
[22] = read-out: Concentration at 90% Inhibition Dm, Diplodia maydis, growth inhibition vs 2% DMSO control at 48 hours
[23] = read-out: Concentration at 90% Inhibition Pc, Phytophthora capsici, growth inhibition at 48 hours vs 2% DMSO control
[24] = read-out: Concentration at 90% Inhibition Pc, Phytophthora capsici, growth inhibition vs 2% DMSO control at 48 hours
[25] = read-out: MIC, C. parapsilosis ATCC 22019, Table 3a, 3 replicates, MIC recorded at 48 h
[26] = read-out: MIC, C. parapsilosis ATCC 22019, Table 3b (additional results), 3 replicates, MIC recorded at 48 h

Chain of human (hACC2) (O00763 whole entry): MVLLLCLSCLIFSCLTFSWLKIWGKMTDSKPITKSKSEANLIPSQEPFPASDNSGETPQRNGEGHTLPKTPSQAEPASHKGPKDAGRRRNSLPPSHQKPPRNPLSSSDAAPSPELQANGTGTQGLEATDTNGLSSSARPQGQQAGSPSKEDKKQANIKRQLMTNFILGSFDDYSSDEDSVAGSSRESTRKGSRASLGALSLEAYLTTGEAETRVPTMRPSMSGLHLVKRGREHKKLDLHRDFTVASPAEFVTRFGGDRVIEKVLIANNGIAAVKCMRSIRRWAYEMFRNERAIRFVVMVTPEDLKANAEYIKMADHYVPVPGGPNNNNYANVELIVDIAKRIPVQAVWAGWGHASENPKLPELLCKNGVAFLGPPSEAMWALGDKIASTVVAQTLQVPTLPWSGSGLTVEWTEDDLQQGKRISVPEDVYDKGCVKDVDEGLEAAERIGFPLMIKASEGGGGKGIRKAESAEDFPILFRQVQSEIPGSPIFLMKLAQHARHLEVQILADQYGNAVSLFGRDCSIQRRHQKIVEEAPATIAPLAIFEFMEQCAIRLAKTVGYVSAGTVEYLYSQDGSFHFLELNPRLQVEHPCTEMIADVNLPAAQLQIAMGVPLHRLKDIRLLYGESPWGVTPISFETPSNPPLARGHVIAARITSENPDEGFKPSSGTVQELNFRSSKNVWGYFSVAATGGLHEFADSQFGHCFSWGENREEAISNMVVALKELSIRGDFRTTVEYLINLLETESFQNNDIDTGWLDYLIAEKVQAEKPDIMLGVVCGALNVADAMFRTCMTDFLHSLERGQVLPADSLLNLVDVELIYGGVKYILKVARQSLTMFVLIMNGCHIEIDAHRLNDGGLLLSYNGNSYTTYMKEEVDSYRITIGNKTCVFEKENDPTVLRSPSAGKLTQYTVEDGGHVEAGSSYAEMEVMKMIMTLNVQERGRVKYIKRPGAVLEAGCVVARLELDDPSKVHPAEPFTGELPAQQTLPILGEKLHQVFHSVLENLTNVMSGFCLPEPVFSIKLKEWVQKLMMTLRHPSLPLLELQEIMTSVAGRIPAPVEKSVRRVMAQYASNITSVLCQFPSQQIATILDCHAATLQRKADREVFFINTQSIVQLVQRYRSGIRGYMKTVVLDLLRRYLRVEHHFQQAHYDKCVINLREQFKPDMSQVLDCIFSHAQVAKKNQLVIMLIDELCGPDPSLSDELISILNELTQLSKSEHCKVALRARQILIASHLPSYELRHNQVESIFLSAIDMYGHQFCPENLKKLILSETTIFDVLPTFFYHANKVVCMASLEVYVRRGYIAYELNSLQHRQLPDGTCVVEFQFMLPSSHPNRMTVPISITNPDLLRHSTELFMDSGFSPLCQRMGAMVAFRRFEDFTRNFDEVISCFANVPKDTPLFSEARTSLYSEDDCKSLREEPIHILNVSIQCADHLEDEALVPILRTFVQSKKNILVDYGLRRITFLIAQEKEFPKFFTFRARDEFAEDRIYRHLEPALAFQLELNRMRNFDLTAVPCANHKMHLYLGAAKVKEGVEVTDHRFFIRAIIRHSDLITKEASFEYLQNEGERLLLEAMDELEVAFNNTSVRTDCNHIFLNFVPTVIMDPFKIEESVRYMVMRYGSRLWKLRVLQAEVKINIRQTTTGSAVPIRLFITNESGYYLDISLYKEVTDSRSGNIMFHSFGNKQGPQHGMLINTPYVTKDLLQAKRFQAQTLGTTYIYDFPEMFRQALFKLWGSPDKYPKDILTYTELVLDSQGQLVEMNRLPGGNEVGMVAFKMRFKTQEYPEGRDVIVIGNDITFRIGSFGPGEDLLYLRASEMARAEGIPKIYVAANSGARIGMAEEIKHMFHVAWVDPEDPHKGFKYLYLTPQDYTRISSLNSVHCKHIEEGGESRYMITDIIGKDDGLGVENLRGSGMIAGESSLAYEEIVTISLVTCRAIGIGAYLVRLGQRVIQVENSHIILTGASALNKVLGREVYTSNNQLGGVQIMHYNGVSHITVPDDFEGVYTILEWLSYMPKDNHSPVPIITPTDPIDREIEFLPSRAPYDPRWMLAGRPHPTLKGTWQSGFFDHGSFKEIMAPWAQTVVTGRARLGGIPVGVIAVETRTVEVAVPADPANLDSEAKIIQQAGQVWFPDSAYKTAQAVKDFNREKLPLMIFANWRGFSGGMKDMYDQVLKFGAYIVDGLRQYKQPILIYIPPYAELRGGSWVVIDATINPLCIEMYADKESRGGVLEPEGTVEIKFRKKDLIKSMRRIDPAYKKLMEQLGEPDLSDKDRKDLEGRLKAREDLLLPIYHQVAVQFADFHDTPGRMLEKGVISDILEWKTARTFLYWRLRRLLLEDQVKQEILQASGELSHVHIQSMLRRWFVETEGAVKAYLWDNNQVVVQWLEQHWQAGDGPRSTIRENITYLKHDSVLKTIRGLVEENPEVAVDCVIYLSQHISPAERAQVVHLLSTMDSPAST
Chain of fungal (fACC2) (Q00955 whole entry): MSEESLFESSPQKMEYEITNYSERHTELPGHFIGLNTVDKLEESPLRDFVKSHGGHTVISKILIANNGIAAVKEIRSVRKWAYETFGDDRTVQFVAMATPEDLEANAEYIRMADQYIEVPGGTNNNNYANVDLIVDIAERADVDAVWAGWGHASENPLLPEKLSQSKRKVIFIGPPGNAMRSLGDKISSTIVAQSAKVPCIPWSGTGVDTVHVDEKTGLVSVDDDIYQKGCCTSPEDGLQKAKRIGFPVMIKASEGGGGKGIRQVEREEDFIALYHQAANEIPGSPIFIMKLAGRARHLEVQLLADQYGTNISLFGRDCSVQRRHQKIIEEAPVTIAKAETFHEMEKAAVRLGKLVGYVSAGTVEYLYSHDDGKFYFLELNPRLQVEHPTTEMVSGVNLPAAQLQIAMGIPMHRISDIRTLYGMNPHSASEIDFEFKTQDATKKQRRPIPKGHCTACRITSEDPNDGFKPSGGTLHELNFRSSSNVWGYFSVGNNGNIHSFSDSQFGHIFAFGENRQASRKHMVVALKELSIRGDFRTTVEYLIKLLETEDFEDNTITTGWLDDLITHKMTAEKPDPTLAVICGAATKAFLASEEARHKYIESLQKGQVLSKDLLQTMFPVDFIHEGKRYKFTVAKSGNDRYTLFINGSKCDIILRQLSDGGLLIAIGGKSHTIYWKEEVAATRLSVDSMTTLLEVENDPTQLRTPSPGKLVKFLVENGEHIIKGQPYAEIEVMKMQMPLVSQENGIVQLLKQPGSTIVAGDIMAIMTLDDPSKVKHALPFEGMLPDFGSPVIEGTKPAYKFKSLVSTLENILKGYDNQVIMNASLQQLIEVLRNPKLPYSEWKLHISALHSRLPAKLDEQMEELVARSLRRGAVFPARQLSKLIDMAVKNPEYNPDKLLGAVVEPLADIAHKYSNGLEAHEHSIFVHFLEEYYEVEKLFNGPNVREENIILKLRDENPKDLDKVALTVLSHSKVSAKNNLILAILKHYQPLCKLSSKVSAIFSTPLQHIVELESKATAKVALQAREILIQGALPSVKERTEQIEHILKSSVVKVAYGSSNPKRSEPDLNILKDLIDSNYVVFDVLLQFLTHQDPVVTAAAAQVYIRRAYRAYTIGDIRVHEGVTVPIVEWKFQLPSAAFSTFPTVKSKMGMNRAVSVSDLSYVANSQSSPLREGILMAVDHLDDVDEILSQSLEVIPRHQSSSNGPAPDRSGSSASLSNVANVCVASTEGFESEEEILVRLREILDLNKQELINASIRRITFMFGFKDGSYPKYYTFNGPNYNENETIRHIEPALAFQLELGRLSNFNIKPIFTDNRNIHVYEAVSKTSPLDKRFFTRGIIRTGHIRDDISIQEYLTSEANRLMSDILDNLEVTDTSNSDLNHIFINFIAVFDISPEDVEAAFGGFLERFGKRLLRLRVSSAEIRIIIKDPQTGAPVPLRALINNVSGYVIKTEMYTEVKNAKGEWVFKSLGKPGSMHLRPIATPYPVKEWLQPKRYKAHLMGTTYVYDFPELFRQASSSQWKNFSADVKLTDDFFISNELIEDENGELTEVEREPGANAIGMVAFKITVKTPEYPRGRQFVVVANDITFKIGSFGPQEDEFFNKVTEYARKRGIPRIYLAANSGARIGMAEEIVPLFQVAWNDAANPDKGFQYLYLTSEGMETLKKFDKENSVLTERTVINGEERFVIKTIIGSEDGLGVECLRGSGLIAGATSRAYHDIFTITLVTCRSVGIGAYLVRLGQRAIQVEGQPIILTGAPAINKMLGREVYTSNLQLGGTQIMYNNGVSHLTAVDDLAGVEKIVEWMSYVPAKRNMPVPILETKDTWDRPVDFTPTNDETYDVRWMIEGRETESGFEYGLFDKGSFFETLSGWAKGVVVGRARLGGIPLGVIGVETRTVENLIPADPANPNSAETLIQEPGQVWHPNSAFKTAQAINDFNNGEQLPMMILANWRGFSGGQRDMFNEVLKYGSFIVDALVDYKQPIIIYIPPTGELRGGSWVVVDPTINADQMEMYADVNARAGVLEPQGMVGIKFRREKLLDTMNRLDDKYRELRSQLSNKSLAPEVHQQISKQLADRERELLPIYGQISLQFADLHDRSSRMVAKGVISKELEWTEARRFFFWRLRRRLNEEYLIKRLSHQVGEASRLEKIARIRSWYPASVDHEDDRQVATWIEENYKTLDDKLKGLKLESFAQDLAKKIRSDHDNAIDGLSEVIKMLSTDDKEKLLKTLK

Structure (SMILES)	IC90 [1, 11]	IC90 [1, 12]	IC50 ([2]; Table 2a)	IC50 ([2]; Table 2b, additional results)	IC90 [3, 13]	IC90 [3, 14]	MIC [4, 15]	MIC [4, 16]	MIC [5, 17]	MIC [5, 18]	IC90 [6, 19]	IC90 [6, 20]	IC90 [7, 21]	IC90 [7, 22]	IC90 [8, 23]	IC90 [8, 24]	IC50 ([9]; Table 2a)	IC50 ([9]; Table 2b, additional results)	MIC [10, 25]	MIC [10, 26]	further results
COc1ccc(F)cc1[C@H](Cn1c(=O)n(C(C)(C)C(=O)N(C)C)c(=O)c2c(C)c(-n3nccn3)sc21)OC(C)C [Compound I-49, (R)-2-(1-(2-(5-fluoro-2-methoxyphenyl)-2-isopropoxy-ethyl)-5-methyl-2,4-dioxo-6-(2H-1,2,3-triazol-2-yl)-1,4-dihydrothieno[2,3-d]pyrimi-din-3(2H)-yl)-N,N,2-trimethylpropanamide]	0.4 µg/mL (≈ 0.698 µM)	0.4 µg/mL (≈ 0.698 µM)	1 to 5 nM	1 to 5 nM	0.4 µg/mL (≈ 0.698 µM)	0.4 µg/mL (≈ 0.698 µM)	2.1 to 4 µg/mL (≈ 3.67 to 6.98 µM)	1.01 to 2 µg/mL (≈ 1.76 to 3.49 µM)	2.1 to 4 µg/mL (≈ 3.67 to 6.98 µM)	1.01 to 2 µg/mL (≈ 1.76 to 3.49 µM)	0.4 µg/mL (≈ 0.698 µM)	0.4 µg/mL (≈ 0.698 µM)	2 µg/mL (≈ 3.49 µM)	2 µg/mL (≈ 3.49 µM)	> 50 µg/mL	> 50 µg/mL	10 to 40 nM	10 to 40 nM	2.1 to 4 µg/mL (≈ 3.67 to 6.98 µM)	> 4.01 µg/mL	
CNC(=O)C(C)(C)n1c(=O)c2c(C)c(-n3nccn3)sc2n(C[C@H](OC(C)C)c2cc(F)ccc2OC)c1=O [Compound I-50, (R)-2-(1-(2-(5-fluoro-2-methoxyphenyl)-2-isopropoxy-ethyl)-5-methyl-2,4-dioxo-6-(2H-1,2,3-triazol-2-yl)-1,4-dihydrothieno[2,3-d]pyrimidin-3(2H)-yl)-N,2-dimethylpropanamide]	0.4 µg/mL (≈ 0.716 µM)	0.4 µg/mL (≈ 0.716 µM)	1 to 5 nM	1 to 5 nM	2 µg/mL (≈ 3.58 µM)	10 µg/mL (≈ 17.9 µM)	1.1 to 2 µg/mL (≈ 1.97 to 3.58 µM)	1.01 to 2 µg/mL (≈ 1.81 to 3.58 µM)	1.1 to 2 µg/mL (≈ 1.97 to 3.58 µM)	0.25 to 1 µg/mL (≈ 0.448 to 1.79 µM)	2 µg/mL (≈ 3.58 µM)	2 µg/mL (≈ 3.58 µM)	10 µg/mL (≈ 17.9 µM)	> 50 µg/mL	> 50 µg/mL	> 50 µg/mL	5 to 10 nM	5 to 10 nM	2.1 to 4 µg/mL (≈ 3.76 to 7.16 µM)	2.01 to 4 µg/mL (≈ 3.6 to 7.16 µM)	
COc1ccc(F)cc1[C@H](Cn1c(=O)n(C(C)(C)C(=O)N2CC=CC2)c(=O)c2c(C)c(-n3nccn3)sc21)OC(C)C [Compound I-51, (R)-3-(1-(2,5-dihydro-1H-pyrrol-1-yl)-2-methyl-1-oxopropan-2-yl)-1-(2-(5-fluoro-2-methoxyphenyl)-2-isopropoxyethyl)-5-methyl-6-(2H-1,2,3-triazol-2-yl)thieno[2,3-d]pyrimidine-2,4(1H,3H)-dione]			1 to 5 nM	1 to 5 nM													5 to 10 nM	5 to 10 nM			IC90 ([1]; growth inhibition at 48 hours vs 2% DMSO control, read-out: Concentration at 90% Inhibition Fv): 0.4 µg/mL (≈ 0.67 µM); IC90 ([1]; growth inhibition vs 2% DMSO control at 48 hours, read-out: Concentration at 90% Inhibition Fv): 0.4 µg/mL (≈ 0.67 µM); IC90 ([3]; mycelial plugs, growth inhibition at 48 hours vs 2% DMSO control, read-out: Concentration at 90% Inhibition Rs): 0.4 µg/mL (≈ 0.67 µM); IC90 ([3]; mycelial plugs, growth inhibition vs 2% DMSO control at 48 hours, read-out: Concentration at 90% Inhibition Rs): 0.4 µg/mL (≈ 0.67 µM); MIC ([4]; Table 3a, ATCC 90028, 3 replicates, MIC recorded at 48 h, read-out: MIC, C. albicans ATCC 90028): 0.25 to 1 µg/mL (≈ 0.419 to 1.68 µM); MIC ([4]; Table 3b (additional results), ATCC 90028, 3 replicates, MIC recorded at 48 h, read-out: MIC, C. albicans ATCC 90028): 1.01 to 2 µg/mL (≈ 1.69 to 3.35 µM); MIC ([5]; Table 3a, ATCC 6258, 3 replicates, MIC recorded at 48 h, read-out: MIC, C. krusei ATCC 6258): 0.25 to 1 µg/mL (≈ 0.419 to 1.68 µM); MIC ([5]; Table 3b (additional results), ATCC 6258, 3 replicates, MIC recorded at 48 h, read-out: MIC, C. krusei ATCC 6258): 0.25 to 1 µg/mL (≈ 0.419 to 1.68 µM); IC90 ([6]; Botrtyis cinerea, growth inhibition at 48 hours vs 2% DMSO control, read-out: Concentration at 90% Inhibition Bc): 0.4 µg/mL (≈ 0.67 µM); IC90 ([6]; Botrtyis cinerea, growth inhibition vs 2% DMSO control at 48 hours, read-out: Concentration at 90% Inhibition Bc): 0.4 µg/mL (≈ 0.67 µM); IC90 ([7]; Diplodia maydis, growth inhibition at 48 hours vs 2% DMSO control, read-out: Concentration at 90% Inhibition Dm): 0.08 µg/mL (≈ 0.134 µM); IC90 ([7]; Diplodia maydis, growth inhibition vs 2% DMSO control at 48 hours, read-out: Concentration at 90% Inhibition Dm): 0.08 µg/mL (≈ 0.134 µM); IC90 ([8]; growth inhibition at 48 hours vs 2% DMSO control, read-out: Concentration at 90% Inhibition Pc): > 50 µg/mL; IC90 ([8]; growth inhibition vs 2% DMSO control at 48 hours, read-out: Concentration at 90% Inhibition Pc): > 50 µg/mL; MIC ([10]; Table 3a, ATCC 22019, 3 replicates, MIC recorded at 48 h, read-out: MIC, C. parapsilosis ATCC 22019): 1.1 to 2 µg/mL (≈ 1.84 to 3.35 µM); MIC ([10]; Table 3b (additional results), ATCC 22019, 3 replicates, MIC recorded at 48 h, read-out: MIC, C. parapsilosis ATCC 22019): > 4.01 µg/mL
COc1ccc(F)cc1[C@H](Cn1c(=O)n(C(C)(C)C(=O)NCC#N)c(=O)c2c(C)c(-n3nccn3)sc21)OC(C)C [Compound I-52, (R)—N-(cyanomethyl)-2-(1-(2-(5-fluoro-2-methoxyphenyl)-2-isopropoxyethyl)-5-methyl-2,4-dioxo-6-(2H-1,2,3-triazol-2-yl)-1,4-dihydro-thieno[2,3-d]pyrimidin-3(2H)-yl)-2-methylpropanamide]	2 µg/mL (≈ 3.43 µM)	2 µg/mL (≈ 3.43 µM)	1 to 5 nM	1 to 5 nM	> 50 µg/mL	> 50 µg/mL	2.1 to 4 µg/mL (≈ 3.6 to 6.85 µM)	1.01 to 2 µg/mL (≈ 1.73 to 3.43 µM)	2.1 to 4 µg/mL (≈ 3.6 to 6.85 µM)	0.25 to 1 µg/mL (≈ 0.428 to 1.71 µM)	2 µg/mL (≈ 3.43 µM)	2 µg/mL (≈ 3.43 µM)	10 µg/mL (≈ 17.1 µM)	> 50 µg/mL	> 50 µg/mL	> 50 µg/mL	10 to 40 nM	10 to 40 nM	2.1 to 4 µg/mL (≈ 3.6 to 6.85 µM)	2.01 to 4 µg/mL (≈ 3.44 to 6.85 µM)	
